From patent US20120071493A1, “SUBSTITUTED 8-SULFONYL-2,3,4,5-TETRAHYDRO-1H-GAMMA-CARBOLINES, LIGANDS AND PHARMACEUTICAL COMPOSITION; METHOD FOR THE PRODUCTION AND USE OF SAME” (priority 2009, published 2012)

Tests used:
[1] = biological target: T1, recombinant human 5-HT6 receptor (Homo sapiens, UniProt P50406); assay: Antagonistic activity towards serotonin 5-HT6 receptors, cAMP cell function experiment; type: cell-based; conditions: HEK 293 cells expressing recombinant human 5-HT6 receptor; cAMP response to 10 μM serotonin; read-out: IC50, ability to block serotonin 5-HT6 receptors in the setting of cell function experiments
T1 construct: host or cells: HEK 293 cells with tetracycline-induced T-Rex system (Invitrogen)
Protocol: Determination of antagonistic activity of substituted 8-sulfonyl-2,3,4,5-tetrahydro-1H-γ-carbolines of the general formula 1 towards serotonin 5-HT6 receptors. HEK 293 cells with tetracycline-induced T-Rex system (Invitrogen, USA) consistently expressing recombinant human 5-HT6 receptor, production of Etogen Scientific (USA), were used. The cells were grown in DMEM/10% FBS/1% AAS medium with Blasticidine S and Zeocin (both—Invitrogen, USA). According to the method worked up by the producer of T-Rex system tetracycline hydrochloride was added to the medium with the cells for the purpose of activation of 5-HT6 receptor expression. The cells were embedded in 96-well plates (30,000-40,000 cells per well) and incubated in 5%-CO2 incubator at 37° C. for 24 hs. Before experiments cells medium was replaced by Hank's balanced salt solution (HBSS), comprising 0.137 M NaCl, 5.4 mM KCl, 0.25 mM Na2HPO4, 0.44 mM KH2PO4, 1.3 mM CaCl2, 1.0 mM MgSO4, 5 mM HEPES (pH 7.4), 0.05% BSA and 1 mM IBMX. The tested compounds of general formula 1 were added to the cells in various concentrations. After incubation of the cells for 15 min at room temperature serotonin was added to them up to final concentration of 10 μM and incubation was continued for 30 min. The newly formed cAMP was determined by reagent kit LANCE cAMP Kit, according to the method described by the kit manufacturer […] (PerkinElmer, CIIIA). […] The data given testify that novel γ-carbolines of the general formula 1 are effective serotonin 5-HT6 receptor antagonists. Some of γ-carbolines of the general formula 1 have IC50<0.5 μM in the setting of cell function experiments (IC50—antagonist concentration blocking 5-HT6 receptors for 50%).

male mice of BALB/c line = assay: Mice Behavior in the Elevated Plus Maze test; type: in vivo; conditions: 0.05 mg/kg and 0.2 mg/kg intraperitoneally
Protocol: The experiments were carried out in aged male mice of BALB/c line weighing about 25 g. Animals were housed 5-7 per cage with water and food available. None of animals was acquainted with experimental set-up before. Each experimental group included 8 animals.
The procedure used was described earlier by Lister (Lister R. G. The use of a plus-maze to measure anxiety in the mouse. Psychopharmacology, 1987; 92:180-185). Plexiglass set-up consisted of two opened arms of 30×5 cm size and two closed arms of 30×5×15 cm size was used. Side arms were closed with transparent plexiglass and were connected with central zone via platform of 5×5 cm size. Opened arms, central platform and floor were made of black plexiglass. The set-up was mounted on a metallic base which was placed 38.5 cm above floor level.
Animals were injected intraperitoneally with placebo, Buspirone (5 mg/kg, 30 minutes before training), Lorazepam (0.05 mg/kg, 60 minutes before training) or with one of the compounds of the general formula 1, for example, compound 1.1.1(4).HCl or compound 1.2.1(3).HCl in doses 0.05 mg/kg and 0.2 mg/kg. Buspirone and Lorazepam were introduced in maximal effective dose, at which side sedative effect and general decrease of exploratory activity (number of arm entries during the test) were not observed yet.
Each mouse was placed in maze center with its head towards the opened arm. Over a period of 5 minutes the sequence and duration of arm entries were registered by means of computer program. Criterion for entry is location of all animal's paws inside the arm at the same time. Index of preference was calculated as ratio of the time spent by animal in opened arms as well as the number of entries into opened arms to the total time spent by it in opened and closed arms or, respectively, to the whole number of entries to arms of both types. The number of defecations left by mouse was regarded as additional parameter characterizing anxiety state.

T1 sequence (P50406 whole entry): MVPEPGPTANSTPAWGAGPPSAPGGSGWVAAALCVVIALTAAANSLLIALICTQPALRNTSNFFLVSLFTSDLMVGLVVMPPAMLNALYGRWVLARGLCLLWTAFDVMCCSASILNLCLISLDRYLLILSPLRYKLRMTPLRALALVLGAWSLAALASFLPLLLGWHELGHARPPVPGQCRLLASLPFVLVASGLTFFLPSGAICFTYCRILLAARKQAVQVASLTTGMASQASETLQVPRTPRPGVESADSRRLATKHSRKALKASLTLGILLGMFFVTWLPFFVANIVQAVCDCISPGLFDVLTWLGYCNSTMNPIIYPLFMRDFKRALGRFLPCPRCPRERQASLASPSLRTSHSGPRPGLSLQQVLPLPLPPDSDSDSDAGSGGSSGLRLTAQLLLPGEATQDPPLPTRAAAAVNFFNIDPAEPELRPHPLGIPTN

| Compound | IC50 [1] [nM] | anxiolytic effect in elevated plus maze (male mice of BALB/c line) |
| --- | --- | --- |
| CN1CCc2c(c3cc(S(=O)(=O)c4ccccc4)ccc3n2C)C1.Cl [1.1.1(4)•HCl, 2,5-dimethyl-8-(phenylsulfonyl)-2,3,4,5-tetrahydro-1H-γ-carboline hydrochloride] | 78 | well-marked anxiolytic effect |
| CN1CCc2[nH]c3ccc(S(=O)(=O)Nc4cccc(F)c4)cc3c2C1.Cl [1.2.1(3)•HCl, 2-methyl-2,3,4,5-tetrahydro-1H-γ-carboline-8-sulfonic acid 3-fluorophenyl amide hydrochloride] | 15 | well-marked anxiolytic effect |
